# Key:
# [1] = test system: tumor-specific antibody-glucosidase conjugate; settings: in vitro
# alpha-glucosidase = settings: in vitro, enzyme alpha-glucosidase
# human β-glucuronidase = target: T1, human β-glucuronidase (Homo sapiens, UniProt P08236); experiment: prodrug cleavage by β-glucuronidase (human, recombinant), HPLC; assay type: biochemical
# T1 sequence (P08236 23-651): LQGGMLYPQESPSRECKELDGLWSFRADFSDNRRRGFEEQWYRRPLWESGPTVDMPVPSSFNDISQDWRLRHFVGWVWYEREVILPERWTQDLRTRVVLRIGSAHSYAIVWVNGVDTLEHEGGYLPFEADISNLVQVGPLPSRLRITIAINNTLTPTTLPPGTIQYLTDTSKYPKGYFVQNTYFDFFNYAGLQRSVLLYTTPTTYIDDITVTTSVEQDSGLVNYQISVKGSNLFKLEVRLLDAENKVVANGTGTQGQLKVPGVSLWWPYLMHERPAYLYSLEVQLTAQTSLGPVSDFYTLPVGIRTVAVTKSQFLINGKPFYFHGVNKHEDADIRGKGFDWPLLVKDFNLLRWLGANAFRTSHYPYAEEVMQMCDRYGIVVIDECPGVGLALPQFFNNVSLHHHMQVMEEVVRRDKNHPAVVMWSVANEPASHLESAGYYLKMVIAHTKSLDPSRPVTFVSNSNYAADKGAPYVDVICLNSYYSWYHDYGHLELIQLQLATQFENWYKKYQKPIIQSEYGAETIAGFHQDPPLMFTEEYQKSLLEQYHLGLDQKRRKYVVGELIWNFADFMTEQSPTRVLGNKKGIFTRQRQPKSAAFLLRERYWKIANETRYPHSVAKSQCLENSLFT
# Experimental: (§1) It was shown in Example 17 that the β-glucuronidase portion of the fusion protein is able, like the native human enzyme, to cleave the β-glucuronide of 4-methylumbelliferol. In the investigations which are described hereinafter, the substrate used for the enzymatic cleavage was a β-glucuronide, linked via a spacer group, of the cytostatic daunomycin. The specific procedure for these investigations was as follows:
# (§2) 4 mg of the compound N-(4-hydroxy-3-nitrobenzyloxy-carbonyl)daunorubicin β-D-glucuronide (prodrug), which is described in French Patent Application (No. d'Enregistrement National: 9105326) were dissolved in 1 ml of 20 mM phosphate buffer, pH 7.2. 35 μl of the fusion protein (Example 21) or of human β-glucuronidase (total concentration in each case 6.5 U/ml; 1 U=cleavage of 1 μmol of 4-methyl-umbelliferol/min at 37° C.) were pipetted into 5 μl portions of this substrate solution and incubated in the dark at 37° C. Samples (5 μl) of the incubation mixture were removed after various times and immediately analyzed by high pressure liquid chromatography under the following conditions:
# (§3) Nucleosil 100 RP 18, 5 μm particle diameter, 125×4.6 mm
# (§4) Gradient of solution A (100% acetonitrile) and solution B (20 mM phosphate buffer pH.3.0)
# (§5) Detection: fluorescence, excitation 495 nm, emission […]
# (§6) Data analysis: Beckman System Gold Software
# [2] = target: T2, 431/26 hum VH huβGlc 1H fusion protein (Homo sapiens, UniProt P01860+P08236); experiment: prodrug cleavage by β-glucuronidase (fusion protein), HPLC; assay type: biochemical
# T2 construct: made in house; host or cells: BHK cells
# T2 sequence (P01860+P08236 fused): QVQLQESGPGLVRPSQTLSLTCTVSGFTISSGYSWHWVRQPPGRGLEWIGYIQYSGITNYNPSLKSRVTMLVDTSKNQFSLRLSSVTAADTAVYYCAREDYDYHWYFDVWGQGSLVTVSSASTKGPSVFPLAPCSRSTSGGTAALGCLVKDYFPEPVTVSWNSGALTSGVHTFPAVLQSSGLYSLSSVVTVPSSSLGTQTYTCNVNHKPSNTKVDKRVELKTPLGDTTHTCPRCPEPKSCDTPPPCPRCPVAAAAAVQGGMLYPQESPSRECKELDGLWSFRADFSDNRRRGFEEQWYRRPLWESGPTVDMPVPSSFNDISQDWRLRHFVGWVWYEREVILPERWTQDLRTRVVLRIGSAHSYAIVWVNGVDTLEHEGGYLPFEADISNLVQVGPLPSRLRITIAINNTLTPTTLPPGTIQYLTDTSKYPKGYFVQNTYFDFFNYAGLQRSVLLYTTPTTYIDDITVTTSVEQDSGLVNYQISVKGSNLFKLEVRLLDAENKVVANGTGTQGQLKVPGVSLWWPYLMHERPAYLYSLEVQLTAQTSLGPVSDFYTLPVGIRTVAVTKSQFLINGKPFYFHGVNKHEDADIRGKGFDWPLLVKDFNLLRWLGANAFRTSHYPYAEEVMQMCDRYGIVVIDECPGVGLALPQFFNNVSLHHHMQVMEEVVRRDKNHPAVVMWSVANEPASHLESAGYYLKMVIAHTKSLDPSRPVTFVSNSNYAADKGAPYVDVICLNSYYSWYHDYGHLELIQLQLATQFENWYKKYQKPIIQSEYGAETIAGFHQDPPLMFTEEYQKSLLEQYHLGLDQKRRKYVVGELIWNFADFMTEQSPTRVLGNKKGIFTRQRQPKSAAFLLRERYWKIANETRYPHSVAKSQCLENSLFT
# Experimental: as §1, §2, §3, §4, §5, §6
molecule,measurement,setting,value
4′-O-alpha-D-glucopyranosyl-etoposide,cleavage into etoposide and D-glucose,[1],can be cleaved in vitro into etoposide and D-glucose
same,cleavage into etoposide and D-glucose,alpha-glucosidase,can be cleaved in vitro into etoposide and D-glucose
"COc1cccc2c1C(=O)c1c(O)c3c(c(O)c1C2=O)C[C@@](O)(C(C)=O)C[C@@H]3O[C@H]1C[C@H](NC(=O)OCc2ccc(O[C@@H]3O[C@H](C(=O)O)[C@@H](O)[C@H](O)[C@H]3O)c([N+](=O)[O-])c2)[C@H](O)[C@H](C)O1 [Prodrug, N-(4-hydroxy-3-nitrobenzyloxy-carbonyl)daunorubicin β-D-glucuronide]",DNM area % (liberated daunomycin),human β-glucuronidase; t 0 min,0.8 area %
same,Prodrug area %,human β-glucuronidase; t 0 min,99.2 area %
same,DNM area % (liberated daunomycin),human β-glucuronidase; t 57 min,64.0 area %
same,Prodrug area %,human β-glucuronidase; t 57 min,36.0 area %
same,DNM area % (liberated daunomycin),human β-glucuronidase; t 130 min,89.7 area %
same,Prodrug area %,human β-glucuronidase; t 130 min,10.3 area %
same,DNM area % (liberated daunomycin),human β-glucuronidase; t 227 min,90.7 area %
same,Prodrug area %,human β-glucuronidase; t 227 min,9.3 area %
same,DNM area % (liberated daunomycin),[2]; t 0 min,1.1 area %
same,Prodrug area %,[2]; t 0 min,98.9 area %
same,DNM area % (liberated daunomycin),[2]; t 50 min,18.9 area %
same,Prodrug area %,[2]; t 50 min,81.1 area %
same,DNM area % (liberated daunomycin),[2]; t 135 min,48.3 area %
same,Prodrug area %,[2]; t 135 min,51.7 area %
same,DNM area % (liberated daunomycin),[2]; t 190 min,67.0 area %
same,Prodrug area %,[2]; t 190 min,33.0 area %
same,DNM area % (liberated daunomycin),[2]; t 247 min,78.0 area %
same,Prodrug area %,[2]; t 247 min,22.0 area %
same,DNM area % (liberated daunomycin),[2]; t 317 min,87.6 area %
same,Prodrug area %,[2]; t 317 min,12.4 area %
